# Assay results as given in patent publication US6664039B1, “Methods and compositions for modulating neurodegeneration” (California Institute of Technology, priority 1998, dated 2003).
# “Also recorded” adds a separate entry of the source.
# How the values were obtained:
# [1] = tested on: C26; details: ALD, feeding GTO oil, within 4 months; cited from earlier work
# [2] = tested on: VLCFAs; test: Assay of very long chain fatty acids by gas chromatography in bubblegum flies; type: in vivo, Drosophila; details: male mutant flies treated from larval stage, 15 days old, compared with parental strain
# Protocol: Assay of very long chain fatty acids by gas chromatography. To determine whether bubblegum has an accumulation of VLCFAs, fatty acid analysis by gas chromatography was performed on 15 day old flies, comparing homozygous mutant flies with those of the parent strain from which bubblegum was derived.
# Extracts of whole male or female flies were used for purification and methylation of fatty acids. Gas chromatography was performed with a HP-5MS column (30 m×0.25 mm, 0.25-μm film thickness) and mass spectrometry was used to analyze the fatty acid methyl esters. Identification and measurement of fatty acid concentrations were based on an oil reference standard (NHI-F) from Sigma Co. and the C15 added as an internal standard.
# (§1) To determine whether similar dietary treatment can reduce the level of C26 and/or prevent the pathology seen in bubblegum, 2.5% of GTO oil was added to the normal corn meal-yeast-agar medium. […] However, knowing that oil treatment in ALD was not able to prevent the progression of the disease once patients had shown neurological symptoms, we decided to treat mutant flies with the oil at pre-adult stages. First instar larvae were raised in the oil-containing medium until eclosion and the adult flies were then transferred into fresh medium, still containing the oil, changed every 3 days.
# [3] = tested on: bubblegum mutant flies; test: Countercurrent phototaxis test; type: in vivo, Drosophila; details: 5 day old bubblegum raised with the oil from the larval stage
# Text: Phototactic analysis. In ALD, visual loss is on of the clinical symptoms, and anatomical analysis has shown abnormalities of the optic nerve and degeneration of ganglion cell layer. Flies transformed with P-elements expressing eye pigment, as is the case for bubblegum, are phototactic. A countercurrent phototaxis test was used to examine the visual behavior of bubblegum. […] Therefore, the oil treatment can prevent the biochemical, structural, and physiological defects caused by the mutation.
# Flies were placed in a countercurrent distribution apparatus and responses to light were analyzed. Each numbered tube represents the number of positive responses in a total of 5 trials. In control tests for the from-light response, neither group of flies moved away from light.
# [4] = tested on: bubblegum mutant flies; test: Lifespan of bubblegum mutant flies; type: in vivo, Drosophila; details: male mutant flies treated with oil from larval stage
# Protocol: Mutagenesis and screen. Drosophilia lines carrying P(lacZ, w+) were screened for mutations causing reduced lifespan at 29° C.
# as §1
# [5] = tested on: bubblegum mutant flies; test: Brain (lamina) degeneration in bubblegum mutant flies by light and electron microscopy; type: in vivo, Drosophila; details: for degeneration: male mutant flies raised in oil-containing medium from first instar larvae, 15 day-old adults
# Protocol: Tissue preparation for microscopy. Fly heads were prepared by fixation in 1% paraformaldehyde+1% glutaraldehyde, postfixation in 1% osmium tetroxide, dehydration in an ethanol series, and embedding in Epon 812. For light microscopy, […] were stained with 1% toludine blue 1% Borax. For electron microscopy, ultrathin sections (80 nm) were examined with a Philips 201 electron microscope at 60 kV.
# as §1
structure (smiles),measurement,setting,value
"CCCCCCCC/C=C\CCCCCCCC(=O)OCC(COC(=O)CCCCCCC/C=C\CCCCCCCC)OC(=O)CCCCCCC/C=C\CCCCCCCC [GTO, glyceryl trioleate]",reduction of the level of C26 in plasm,[1],about 50%
same,levels of VLCFAs,[2],becoming normal
same,levels of VLCFAs,[2]; listed as GTO oil,reduced to normal
same,phototactic response (response to the light),[3],greatly enhanced response to the light
same,phototactic response (response to the light),[3]; listed as oil,showed a phototactic response
same,lifespan,[4],recovered
same,onset of brain degeneration,"[5]; adult mutant flies transferred to medium with 2.5% GTO oil, fed 15 days following emergence",reduced only slightly
same,age-dependent degeneration phenotype,[5]; homozygous females fed the oil,similarly prevented
same,degeneration,[5],largely prevented; also recorded: prevented the onset of degeneration
same,degeneration,[5]; listed as GTO oil,largely been prevented
